In general, EC50 refers to the concentration needed to bring the measured effect to its halfway point. The Kd is a measure of binding affinity in units of concentration. In general, ΔTm refers to the change in melting temperature against a reference sample.

Molecules are shown by their SMILES. Active and inactive are the calls of the source. The calls are words filed in the database; no cut-off is given here.

Test [1] concerns the target T1, Serine/threonine-protein phosphatase 5 (Homo sapiens, UniProt P53041).
T1 sequence (P53041 whole entry): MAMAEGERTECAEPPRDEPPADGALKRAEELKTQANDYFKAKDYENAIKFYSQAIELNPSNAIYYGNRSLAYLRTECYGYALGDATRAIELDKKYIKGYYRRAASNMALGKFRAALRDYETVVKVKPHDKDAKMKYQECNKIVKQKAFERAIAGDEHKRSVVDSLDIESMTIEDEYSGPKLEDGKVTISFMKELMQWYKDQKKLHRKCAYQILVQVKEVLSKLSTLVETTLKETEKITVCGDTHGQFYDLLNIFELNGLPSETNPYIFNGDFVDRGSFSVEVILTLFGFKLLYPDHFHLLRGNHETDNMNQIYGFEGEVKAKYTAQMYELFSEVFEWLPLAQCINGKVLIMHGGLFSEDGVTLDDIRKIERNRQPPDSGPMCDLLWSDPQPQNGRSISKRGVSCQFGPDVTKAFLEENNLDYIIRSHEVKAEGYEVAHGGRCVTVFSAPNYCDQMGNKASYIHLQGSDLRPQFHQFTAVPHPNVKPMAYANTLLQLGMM
Description: Activation of His-tagged human PP5 extracted from Escherichia coli BL21 using pNPP as substrate assessed as increase in phosphatase activity incubated for 30 mins by spectrophotometric analysis.

Test [2] concerns the target Dual specificity protein phosphatase 3 (Homo sapiens) (UniProt P51452). Description: Inhibition of DUSP3 (unknown origin) using DiFMUP as substrate at 0.01 to 1000 uM. The following applies: dose 0.01-1000 µM.
The test system of test [3] is HCT-116. Description: Downregulation of AT13387-induced HSP27 expression in PP5 Knockout human HCT-116 cells at 50 uM incubated for 24 hrs by Western blot analysis. Type of test: functional, cell-based. Background: Immunoblotting shows a protein as a band on a membrane.
Test [4] addresses T2, Serine/threonine-protein phosphatase 5 (Homo sapiens) (UniProt P53041).
T2 sequence (whole entry): T1 sequence (P53041 whole entry)
Description: Binding affinity to His-tagged human PP5 extracted from Escherichia coli BL21 at 200 uM by STD-NMR analysis. The following applies: filed as activator.

Test [5] has as its target T1, Serine/threonine-protein phosphatase 5. Description: Binding affinity to His-tagged human PP5 phosphatase domain extracted from Escherichia coli BL21 assessed as dissociation constant by ITC analysis. On the technique in general: ITC needs no label: the signal is the heat of the interaction.
Test [6] deals with HCT-116. Description: Effect on AT13387-induced HSF1 expression in human HCT-116 cells at 50 uM incubated for 24 hrs by Western blot analysis. It is filed as functional, cell-based.
For test [7], the target named is Serine/threonine-protein phosphatase PP1-beta catalytic subunit (Homo sapiens) (UniProt P62140). Description: Inhibition of PP1B (unknown origin) using DiFMUP as substrate at 0.01 to 1000 uM. The following applies: dose 0.01-1000 µM.
Chain of Serine/threonine-protein phosphatase PP1-beta catalytic subunit (Homo sapiens) (P62140 whole entry): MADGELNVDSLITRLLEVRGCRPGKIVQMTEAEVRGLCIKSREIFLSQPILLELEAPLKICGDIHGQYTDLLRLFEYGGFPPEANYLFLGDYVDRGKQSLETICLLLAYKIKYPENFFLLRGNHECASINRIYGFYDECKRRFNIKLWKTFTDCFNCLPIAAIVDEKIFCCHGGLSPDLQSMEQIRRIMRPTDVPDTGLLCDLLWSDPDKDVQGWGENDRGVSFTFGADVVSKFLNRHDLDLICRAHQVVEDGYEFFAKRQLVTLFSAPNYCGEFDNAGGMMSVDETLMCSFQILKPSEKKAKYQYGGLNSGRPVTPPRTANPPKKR
For a further test, the species on record is Homo sapiens. Description: Inhibition of PP2A (unknown origin) using DiFMUP as substrate at 0.01 to 1000 uM. The following applies: dose 0.01-1000 µM.
Test [8] concerns the target T3, Tyrosine-protein phosphatase non-receptor type 11 (Homo sapiens) (UniProt Q06124).
T3 sequence (whole entry): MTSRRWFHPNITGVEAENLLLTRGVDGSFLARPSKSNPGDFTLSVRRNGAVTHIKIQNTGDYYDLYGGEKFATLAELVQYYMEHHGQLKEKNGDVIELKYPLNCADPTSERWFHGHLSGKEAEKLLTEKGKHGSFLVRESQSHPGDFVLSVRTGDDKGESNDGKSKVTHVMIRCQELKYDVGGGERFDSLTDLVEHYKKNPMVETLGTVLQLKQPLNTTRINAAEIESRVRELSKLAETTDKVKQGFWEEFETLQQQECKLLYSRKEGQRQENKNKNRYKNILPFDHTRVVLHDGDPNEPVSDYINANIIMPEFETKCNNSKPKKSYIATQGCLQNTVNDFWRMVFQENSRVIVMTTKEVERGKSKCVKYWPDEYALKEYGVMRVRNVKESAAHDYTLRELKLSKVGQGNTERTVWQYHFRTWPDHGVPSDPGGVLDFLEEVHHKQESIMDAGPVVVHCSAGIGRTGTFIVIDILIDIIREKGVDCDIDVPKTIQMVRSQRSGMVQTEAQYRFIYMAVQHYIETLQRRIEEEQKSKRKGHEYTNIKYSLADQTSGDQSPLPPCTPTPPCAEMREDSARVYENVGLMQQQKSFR
Description: Inhibition of SHP2 (unknown origin) using DiFMUP as substrate at 0.01 to 1000 uM. The following applies: dose 0.01-1000 µM.

Test [9] addresses T2, Serine/threonine-protein phosphatase 5 (Homo sapiens). Description: Binding affinity to human PP5 extracted from Escherichia coli BL21 using CDC37 as substrate assessed as increase in dephosphorylation of p-CDC37 at S13 residue at 25 uM by Western blot analysis. The following applies: filed as activator, time 0.5-2 hrs, TDE = time-dependent effect.
The target is the same in test [10]. Description: Induction of thermal stabilization of PP5 in human HCT-116 cells assessed as increase in melting temperature at 100 uM incubated for 12 hrs at 37 to 58 degreeC by CETSA. It is filed as cell-based.
The target is the same in test [11]. Description: Activation of PP5 in human HCT-116 cells assessed as decrease in intracellular S13 residue phosphorylated CDC37 level incubated for 24 hrs by Western blot analysis. It is filed as cell-based. The following applies: filed as activator, dose <= 100.0 µM.
Test [12] addresses T4, Hsp90 co-chaperone Cdc37 (Homo sapiens) (UniProt Q16543).
T4 sequence (whole entry): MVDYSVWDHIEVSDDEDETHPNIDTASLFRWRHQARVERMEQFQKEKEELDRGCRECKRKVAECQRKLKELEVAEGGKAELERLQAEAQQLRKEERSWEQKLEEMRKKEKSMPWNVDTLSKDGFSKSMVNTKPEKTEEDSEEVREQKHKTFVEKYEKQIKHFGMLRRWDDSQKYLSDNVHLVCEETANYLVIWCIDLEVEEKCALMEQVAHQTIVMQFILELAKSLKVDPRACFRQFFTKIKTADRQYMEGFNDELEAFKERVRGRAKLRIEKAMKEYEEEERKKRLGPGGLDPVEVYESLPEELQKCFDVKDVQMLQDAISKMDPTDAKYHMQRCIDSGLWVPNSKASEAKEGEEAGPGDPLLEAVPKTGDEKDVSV
Description: Induction of CDC37 dephosphorylation at S13 residue in PP5-KO human HCT-116 cells upto 100 uM incubated for 24 hrs by Western blot analysis. Type of test: cell-based.

In test [13] the test system is HCT-116. Description: Antiproliferative activity against human HCT-116 cells assessed as inhibition of cell proliferation at 1 to 100 uM incubated for 72 hrs by CCK8 assay. The following applies: dose 1-100 µM. Type of test: functional, cell-based.
A further test concerns SW-620. Description: Antiproliferative activity against human SW620 cells assessed as inhibition of cell proliferation at 1 to 100 uM incubated for 72 hrs by CCK8 assay. The following applies: dose 1-100 µM. Type of test: functional, cell-based. For orientation: Tetrazolium dyes change colour on reduction, which living cells bring about.
The test system of test [14] is HCT-116. Description: Effect on HSP40 expression level in human HCT-116 cells at 1 to 100 uM incubated for 24 hrs by Western blot analysis. Type of test: functional, cell-based. The following applies: dose 1-100 µM.
Test [15] deals with HCT-116. Description: Effect on HSP70 expression level in human HCT-116 cells at 1 to 100 uM incubated for 24 hrs by Western blot analysis. Type of test: functional, cell-based. The following applies: dose 1-100 µM.
Test [16] deals with HCT-116. Description: Downregulation of AT13387-induced HSP70 expression in human HCT-116 cells at 50 uM incubated for 24 hrs by Western blot analysis. It is filed as functional, cell-based.

Chain of Dual specificity protein phosphatase 3 (Homo sapiens) (P51452 whole entry, looked up): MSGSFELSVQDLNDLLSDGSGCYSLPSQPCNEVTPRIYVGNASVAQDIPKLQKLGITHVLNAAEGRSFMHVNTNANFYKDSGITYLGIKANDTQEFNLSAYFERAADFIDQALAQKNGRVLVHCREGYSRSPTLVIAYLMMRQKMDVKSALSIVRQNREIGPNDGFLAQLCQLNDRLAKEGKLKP

For the molecule `N=c1oc2cc(F)cc(F)c2cc1C(N)=S`, in [1], the EC50 was determined as 52.8 µM. Moreover, the inhibition result (in test [2]; in test [7]; in the test filed under Homo sapiens; in test [8]) was “inactive” each time. The outcome (in the test with HCT-116 [3]; with HCT-116 [6]; in test [12]; in the test on HCT-116 [13]; in the test on SW-620; in the test with HCT-116 [14]) was inactive. In the test on HCT-116 [15], the result was inactive. Moreover, the result (in [4]; in the test with HCT-116 [16]) was Active. For the same molecule, the equilibrium dissociation constant (Kd) in test [5] was 0.811 µM. The Activity result was “Tde” in test [9] and “Dose-Dependent Effect” in test [11]. Besides, the ΔTm in [10] worked out at 1.48 °C.

The values are drawn from ChEMBL document CHEMBL5579878, “Allosteric Activation of Protein Phosphatase 5 with Small Molecules” (J Med Chem, 2024).
